# Measured values as given in US7598244B2, “[1,2,4]triazolo[1,5,a]pyrimidin-2-ylurea derivative and use thereof” (Nippon Kayaku Kabushiki Kaisha, priority 2003, dated 2009).
# pIC50: −log10 of the molar value.
# What was measured:
# Format in all cases: cell-based
# [1] = test system: human dendritic cells cultured with human allogenic T cells; assay: Effect on the ability of human dendritic cells to induce the growth of allogenic T cells ([3H]-thymidine incorporation); details: Homo sapiens; dendritic cells treated 3 days with test compound and TNF-α, then 5 days with allogenic T cells; read-out: IC50 (inhibition of DNA synthesis of lymphocytes)
# Summary of the method: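 Immature human dendritic cells matured 3 days with compound plus TNF-α, then co-cultured with allogeneic T cells (2.5×10^3 DC : 2.0×10^5 T per well) for 5 days at 37 °C, 5% CO2. [3H]-thymidine added for the final 16 h; incorporation counted, inhibition versus compound-free cultures, IC50 derived.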
# CD40 = assay: Expression of antigen-presenting and costimulatory molecules of human peripheral blood-derived dendritic cells: CD40
# Experimental: (§1) Action on Expression of Antigen-Presenting Molecules and Costimulatory Molecules of Human Peripheral Blood-Derived Dendritic Cells
# (§2) The dendritic cells obtained by the same method as in Test Example 2 were suspended in RPMI 1640 comprising 10% FCS containing 500 U/ml GM-CSF, 50 ng/ml IL-4, and 100 U/ml human recombinant tumor necrosis factor (2.5×10^6 cells/ml). Thereafter, the suspension was inoculated into a 6-well plate at an amount of 2.0 ml/well, and the test compound was then added thereto. The mixture was cultured at 37° C. for 3 days in an incubator containing 5% carbon dioxide. Thereafter, the suspended cells were recovered. The cells were then stained with fluoroisothiocyanate-labeled mouse monoclonal antibodies reacting with MHC class I (Bechman Coulter), CD1a (Immunotech), CD40 (Pharmingen), CD80 (Pharmingen), and CD83 (Immunotech). Thereafter, mean fluorescence intensity and the ratio of positive cells were measured by flow cytometry. The expression level was calculated by the formula “the mean fluorescence intensity x the ratio of positive cells,” and the inhibition rate of the surface antigen expression level of dendritic cells was then obtained by the following formula (8).
# (§3) [formula] • Eexp: Expression level of surface antigens of dendritic cells cultured in the presence of test compound • Cexp: Expression level of surface antigens of dendritic cells cultured in the absence of test compound
# MHC class I = assay: Expression of antigen-presenting and costimulatory molecules of human peripheral blood-derived dendritic cells: MHC class I
# Experimental: as §1, §2, §3
structure (smiles),measurement,setting,value
"CC(C)NC(=O)Nc1nc2nccc(-c3cccs3)n2n1 [Example 029, 1-isopropyl-3-(7-thiophen-2-yl[1,2,4]triazolo[1,5-a]pyrimidin-2-yl)urea]",pIC50,[1],5.46
same,"Expression inhibition rate by test compound (%), CD40","CD40; Analyte 1, 3 days",10.8%
same,"Expression inhibition rate by test compound (%), CD40","CD40; Analyte 2, 3 days",−5.4%
same,"Expression inhibition rate by test compound (%), CD40","CD40; Analyte 3, 3 days",12.9%
same,"Expression inhibition rate by test compound (%), MHC class I","MHC class I; Analyte 1, 3 days",72.3%
same,"Expression inhibition rate by test compound (%), MHC class I","MHC class I; Analyte 2, 3 days",63.9%
same,"Expression inhibition rate by test compound (%), MHC class I","MHC class I; Analyte 3, 3 days",72.6%
